In data set [1] the target is TLR9 (Homo sapiens (Human), UniProt Q9NR96). As to the kind of experiment: Human PBMC cell-based assay, TLR9. The following applies: CpG ODN 2216 at 1 μM, overnight, cytokine readout, read-out: hPBMC/TLR9 IC50. From the text:
(§1) Unlike the HEK reporter cell lines, human peripheral blood mononuclear cell (PBMC) represents primary human immune cells in blood mainly consisting of lymphocytes, monocytes, and dendritic cells. These cells express TLR7, TLR8, or TLR9, and therefore are natural responders to respective ligand stimulation. Upon activation of these TLRs, PBMCs secrete similar cytokines and chemokines in vitro and in vivo, and therefore the in vitro potency of a TLR7/8/9 antagonist in human PBMC is readily translatable to its pharmacodynamics response in vivo.
(§2) Human peripheral blood mononuclear cells (PBMC) were isolated from freshly-drawn lithium-heparinized (Lithium Heparin Plus blood Collection tube, BD Vacutainer®) healthy donor whole blood by density gradient (Ficoll-Paque™ PLUS, GE Healthcare life Sciences). Briefly, […] was diluted with 25 mL PBS (without Ca^2+, Mg^2+) in a 50 mL conical tube with porous barrier (Leucosep tube, Greiner bio-one), where 15.5 mL Ficoll-Paque was under laid after spinning. Tubes were centrifuged for 20 minutes at 800×g (1946 rpm) with the brake in the off position, and PBMC were collected from the buffy coat. Cells were then washed twice in PBS, and red blood cells were lysed by suspension in 2 mL (Red Blood Cell Lysis Buffer, Alfa Aesar) for 5-10 minutes at room temperature. After a final wash in PBS, PBMC were resuspended at a final concentration of 2×10^6 cells/mL in RPMI-1640 media with GlutaMAX™ (Gibco) supplemented with 10% Fetal Bovine Serum (Sigma) and plated at 150 μL/well (3×10^5 cells/well) in tissue culture treated round bottom 96-well plates (Corning Incorporated). Antagonist compounds (compounds of this invention) solubilized and serial diluted in 100% DMSO were added in duplicate to cells to yield a final concentration of 1% DMSO (v/v). PBMC were incubated with antagonist compounds for 30 minutes at 37° C., 5% CO2 before adding various TLR agonist reagents in 48 μL complete media per well as follows (final concentrations indicated): CpG ODN 2216 (InvivoGen) at 1 μM for TLR9, ORN 06/LyoVec (InvivoGen) at 1 μg/mL for TLR8 and R848 (InvivoGen) at 1 μg/mL for TLR7 and TLR8. PBMC were incubated overnight at 37° C. with 5% CO2. Cell culture supernatants were collected, and levels of various human cytokines were assessed by Luminex assay (ProcartaPlex™ Multiplex Immunoassay, Invitrogen) or ELISA procedure according to the manufacturer's recommended protocol (eBioscience, ThermoFisher Scientific). Viability of the cells was also checked with Cell Viability Assay (CellTiter Glo®Luminescent Cell Viability Assay, Promega).

Data set [2] deals with TLR7 and TLR8. Nature of the data set: Human PBMC cell-based assay, TLR7 and TLR8. The conditions noted are these: R848 at 1 μg/mL, overnight, cytokine readout, read-out: hPBMC/TLR78 IC50.
Text: as §1
as §2, with “PBMC were incubated with antagonist compounds for 30 minutes at 37° C., 5% CO2 before adding various TLR agonist reagents in 48 μL complete media per well as follows (final concentrations indicated): CpG ODN 2216 (InvivoGen) at 1 μM for TLR9, ORN 06/LyoVec (InvivoGen) at 1 μg/mL for TLR8 and R848 (InvivoGen) at 1 μg/mL for TLR7 and TLR8. PBMC were incubated overnight at 37° C. with 5% CO2.” left out, “Viability of the cells was also checked with Cell Viability Assay (CellTiter Glo®Luminescent Cell Viability Assay, Promega).” left out

Data set [3] addresses hERG channel (Homo sapiens (Human), UniProt Q12809). Nature of the data set: hERG channel inhibition assay (patch-clamp, CHO cells). The class given is cell-based. The following applies: for IC50 / IC20: CHO hERG cells, whole-cell patch-clamp; for IC20: human, CHO cells stably expressing hERG channels; for hERG IC20/TLR7 IC50 / hERG IC20/TLR8 IC50 / hERG IC20/TLR9 IC50: safety ratio. The procedure: The hERG K^+ channels were cloned in humans and stably expressed in a CHO (Chinese hamster ovary) cell line. CHOhERG cells were used for patch-clamp (voltage-clamp, whole-cell) experiments. Cells were stimulated by a voltage pattern to activate hERG channels and conduct IKhERG currents (rapid delayed outward rectifier potassium current of the hERG channel). After the cells were stabilized for a few minutes, the amplitude and kinetics of IKhERG were recorded at a stimulation frequency of 0.1 Hz (6 bpm). Thereafter, the test compound was added to the preparation at increasing concentrations. For each concentration, an attempt was made to reach a steady-state effect, usually, this was achieved within 3-10 min at which time the next highest concentration was applied. The amplitude and kinetics of IKhERG are recorded in each concentration of the drug which were compared to the control values (taken as 100%). (references: Redfern W S, Carlsson L, Davis A S, Lynch W G, MacKenzie I, Palethorpe S, Siegl P K, Strang I, Sullivan A T, Wallis R, Camm A J, Hammond T G. 2003; Relationships between preclinical cardiac electrophysiology, clinical QT interval prolongation and torsade de pointes for a broad range of drugs: evidence for a provisional safety margin in drug development. Cardiovasc. Res. 58:32-45, Sanguinetti M C, Tristani-Firouzi M. 2006; hERG potassium channels and cardiac arrhythmia. Nature 440:463-469, Webster R, Leishman D, Walker D. 2002; Towards a drug concentration effect relationship for QT prolongation and torsades de pointes. Curr. Opin. Drug Discov. Devel. 5:116-26).

The nature of data set [4]: Single dose pharmacokinetics (PK) study in male Wister-Han rats. The class given is in vivo, rat. The method, then: Pharmacokinetic properties of selected compounds were assessed by single dose PK studies in Male Wister-Han Rats (vendor: Beijing Vital River Laboratory Animal Technology Co., Ltd). Briefly, two groups of animals were administered a single dose of respective compound intravenously (IV, bolus) at 2 mg/kg or orally (PO, by gavage) at 10 mg/kg. Blood samples (approximately 150 μL) were collected via Jugular vein at 5 min (only for IV), 15 min, 30 min, 1 h, 2 h, 4 h, 7 h and 24 h post-dose. Blood samples were placed into tubes containing EDTA-K2 anticoagulant and centrifuged at 3000 rpm for 15 min at 4° C. to separate plasma from the samples. After centrifugation, the resulting plasma was transferred to clean tubes for bioanalysis with LC/MS/MS. The pharmacokinetic parameters were calculated using non-compartmental analysis. The volume of distribution (VSS), half-life (T1/2) and clearance (CL) were obtained based on the plasma concentration-time curve after IV dose. The peak concentration (Cmax) was recorded directly from experimental observations after PO dose. The area under the plasma concentration-time curve (AUC0-last) was calculated using the linear trapezoidal rule up to the last detectable concentration. The bioavailability (F) was calculated based on the dose normalized AUC0-last after IV and PO dose.
The VSS of a drug represents the degree to which a drug is distributed in body tissue rather than the plasma. VSS is directly proportional with the amount of drug distributed into tissue. A higher VSS indicates a greater amount of tissue distribution.

This note sets out measurements from patent US20230279001A1, “IMIDAZO[1,2-A]PYRIDINE COMPOUNDS FOR THE TREATMENT OF AUTOIMMUNE DISEASE” (Hoffmann-La Roche Inc., priority 2020, published 2023).

Read-outs that look alike come from different tables or passages of the source.

Sequence of hERG channel (Q12809 whole entry): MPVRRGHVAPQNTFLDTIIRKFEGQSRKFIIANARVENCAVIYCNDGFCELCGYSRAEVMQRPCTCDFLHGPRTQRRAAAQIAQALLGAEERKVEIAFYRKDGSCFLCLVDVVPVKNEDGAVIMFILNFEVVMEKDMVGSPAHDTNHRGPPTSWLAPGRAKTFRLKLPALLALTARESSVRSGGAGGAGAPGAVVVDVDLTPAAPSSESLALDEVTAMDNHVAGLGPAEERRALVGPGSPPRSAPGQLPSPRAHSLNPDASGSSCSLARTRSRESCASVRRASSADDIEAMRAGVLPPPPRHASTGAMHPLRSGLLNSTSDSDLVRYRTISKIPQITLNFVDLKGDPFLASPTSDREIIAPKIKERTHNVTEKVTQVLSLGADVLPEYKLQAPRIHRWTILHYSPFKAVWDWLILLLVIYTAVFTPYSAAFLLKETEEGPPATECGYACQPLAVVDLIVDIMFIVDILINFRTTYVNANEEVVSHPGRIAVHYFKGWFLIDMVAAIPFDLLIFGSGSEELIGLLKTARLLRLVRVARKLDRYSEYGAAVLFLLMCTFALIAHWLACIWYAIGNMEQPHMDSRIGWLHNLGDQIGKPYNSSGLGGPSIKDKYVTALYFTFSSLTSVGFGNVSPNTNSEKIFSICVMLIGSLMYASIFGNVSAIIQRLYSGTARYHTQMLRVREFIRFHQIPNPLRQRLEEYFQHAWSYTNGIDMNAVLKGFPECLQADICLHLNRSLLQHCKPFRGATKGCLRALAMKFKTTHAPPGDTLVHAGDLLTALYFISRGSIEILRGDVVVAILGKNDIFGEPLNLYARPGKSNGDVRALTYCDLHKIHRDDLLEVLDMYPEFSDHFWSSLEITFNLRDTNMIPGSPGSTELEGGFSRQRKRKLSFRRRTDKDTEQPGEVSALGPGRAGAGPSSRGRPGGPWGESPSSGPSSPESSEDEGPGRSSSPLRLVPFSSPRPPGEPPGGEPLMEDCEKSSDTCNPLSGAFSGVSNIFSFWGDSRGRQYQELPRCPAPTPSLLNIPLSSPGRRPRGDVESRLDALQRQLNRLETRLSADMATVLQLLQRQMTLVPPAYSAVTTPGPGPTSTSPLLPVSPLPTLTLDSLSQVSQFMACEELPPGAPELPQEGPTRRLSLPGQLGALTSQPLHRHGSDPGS
Sequence of TLR9 (Q9NR96 26-1032): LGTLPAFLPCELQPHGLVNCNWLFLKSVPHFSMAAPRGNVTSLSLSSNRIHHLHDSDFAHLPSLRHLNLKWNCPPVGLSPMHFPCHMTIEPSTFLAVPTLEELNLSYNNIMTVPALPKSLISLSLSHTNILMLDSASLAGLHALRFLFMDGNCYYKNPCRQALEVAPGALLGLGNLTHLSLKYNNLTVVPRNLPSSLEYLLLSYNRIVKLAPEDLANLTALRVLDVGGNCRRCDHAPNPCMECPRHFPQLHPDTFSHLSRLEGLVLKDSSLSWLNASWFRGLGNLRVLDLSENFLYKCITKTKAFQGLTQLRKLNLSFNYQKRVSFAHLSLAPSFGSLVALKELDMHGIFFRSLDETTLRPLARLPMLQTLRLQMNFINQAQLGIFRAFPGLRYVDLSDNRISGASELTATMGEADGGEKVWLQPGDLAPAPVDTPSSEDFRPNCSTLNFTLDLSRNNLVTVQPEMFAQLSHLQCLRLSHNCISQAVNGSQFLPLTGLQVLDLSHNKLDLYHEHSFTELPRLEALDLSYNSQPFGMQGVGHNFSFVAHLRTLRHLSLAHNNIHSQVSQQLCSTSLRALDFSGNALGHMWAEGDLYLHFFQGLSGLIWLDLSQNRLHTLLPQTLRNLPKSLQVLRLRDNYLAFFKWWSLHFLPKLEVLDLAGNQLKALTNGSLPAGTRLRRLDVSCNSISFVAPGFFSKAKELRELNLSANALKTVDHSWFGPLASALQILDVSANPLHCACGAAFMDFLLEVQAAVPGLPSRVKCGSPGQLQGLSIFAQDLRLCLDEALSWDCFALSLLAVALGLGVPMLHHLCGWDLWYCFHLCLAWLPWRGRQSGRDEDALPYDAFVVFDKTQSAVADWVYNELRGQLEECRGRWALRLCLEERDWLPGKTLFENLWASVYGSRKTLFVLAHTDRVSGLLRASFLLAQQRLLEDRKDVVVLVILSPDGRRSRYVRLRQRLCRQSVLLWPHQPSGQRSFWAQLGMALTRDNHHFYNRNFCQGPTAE

In the case of `Cc1cn2cc(-c3ccc(N4CCC(N5CC(C)(N)C5)CC4)nc3C(F)F)cc(C)c2n1` [Example 12, 1-[1-[6-(difluoromethyl)-5-(2,8-dimethylimidazo[1,2-a]pyridin-6-yl)-2-pyridyl]-4-piperidyl]-3-methyl-azetidin-3-amine], the IC50 in data set [1] turned out to be 290 nM; in data set [2], 16 nM.
As for `CCc1nc(N2CCC(N3C[C@@H](N)[C@H](OC)C3)CC2)ccc1-c1cc(C)c2nccn2c1` [Example 15, (3R,4R)-1-[1-[6-ethyl-5-(8-methylimidazo[1,2-a]pyridin-6-yl)-2-pyridyl]-4-piperidyl]-4-methoxy-pyrrolidin-3-amine], the IC50 in data set [1] was found to be 470 nM. In addition, in data set [3], the IC50 is greater than 20000 nM, the IC20 was 8360 nM, the “hERG IC20/TLR7 IC50” value is listed as 2144.2 and the “hERG IC20/TLR8 IC50” value amounted to 2090. In data set [3], the “hERG IC20/TLR9 IC50” value is reported as 38.7.
Regarding `Cc1cc(-c2ccc(N3CCC(N4CCNCC4)CC3)nc2C(F)F)cn2ccnc12` [Example 10, 6-[2-(difluoromethyl)-6-(4-piperazin-1-yl-1-piperidyl)-3-pyridyl]-8-methyl-imidazo[1,2-a]pyridine], the F in data set [4] (dose normalized AUC0-last after IV 2 mg/kg and PO 10 mg/kg) worked out at 69%. Besides, the AUC(0-t) in data set [4] (rat, IV 2 mg/kg, plasma, read-out: IV AUC0-last) stood at 1060 ng·h/mL. Moreover, the Cmax in data set [4] (rat, PO 10 mg/kg, plasma) came out at 257 ng/mL. The AUC(0-t) in data set [4] (rat, PO 10 mg/kg, plasma, read-out: PO AUC0-last) came to 3640 ng·h/mL. Also, in data set [4] (rat, plasma, IV 2 mg/kg), the clearance stood at 28 mL/min/kg and the half-life is 8.6 h. Also, the Vd in data set [4] (rat, plasma, IV 2 mg/kg, read-out: Vss) was found to be 15 L/kg.
Take `Cc1cn2cc(-c3ccc(N4CCC(N)CC4)nc3C(C)C)cc(C)c2n1` [Example 4, 1-[5-(2,8-dimethylimidazo[1,2-a]pyridin-6-yl)-6-isopropyl-2-pyridyl]piperidin-4-amine]: in data set [3], the IC50 was greater than 10000 nM, the IC20 came out at 4210 nM, the “hERG IC20/TLR7 IC50” value was determined as 471.9 and the “hERG IC20/TLR8 IC50” value came to 1448.2. Further, the “hERG IC20/TLR9 IC50” value in data set [3] is 27.2.
For `CCc1nc(N2CCC(N3CC4(CNCCO4)C3)CC2)ccc1-c1cc(C)c2nccn2c1` [Example 14, 2-[1-[6-ethyl-5-(8-methylimidazo[1,2-a]pyridin-6-yl)-2-pyridyl]-4-piperidyl]-5-oxa-2,8-diazaspiro[3.5]nonane], the IC50 in data set [1] is 250 nM.
Still for that read-out and setting: to `CCc1nc(N2CCC(N3C[C@@H](N)[C@H](OC)C3)CC2)ccc1-c1cc(C)c2nc(C)cn2c1` [Example 17, (3R,4R)-1-[1-[5-(2,8-dimethylimidazo[1,2-a]pyridin-6-yl)-6-ethyl-2-pyridyl]-4-piperidyl]-4-methoxy-pyrrolidin-3-amine] belongs 100 nM.
Take `CCc1nc(N2CCC(C)(N)CC2)ccc1-c1cc(C)c2nc(C)cn2c1` [Example 20, 1-[5-(2,8-dimethylimidazo[1,2-a]pyridin-6-yl)-6-ethyl-2-pyridyl]-4-methyl-piperidin-4-amine]: the IC50 in data set [1] turned out to be 500 nM. In addition, in data set [3], the IC50 was greater than 20000 nM, the IC20 was greater than 10000 nM, the “hERG IC20/TLR7 IC50” value is greater than 1666.7 and the “hERG IC20/TLR8 IC50” value was greater than 636.9. Also, in data set [3], the “hERG IC20/TLR9 IC50” value is recorded as greater than 44.2.
On to `COc1nc(N2CCC(N3CCNCC3)CC2)ccc1-c1cc(C)c2nccn2c1` [Example 25, 6-[2-methoxy-6-(4-piperazin-1-yl-1-piperidyl)-3-pyridyl]-8-methyl-imidazo[1,2-a]pyridine], for which the IC50 in data set [1] came to 130 nM. In addition, in data set [3], the IC50 was greater than 20000 nM, it took 5780 nM to reach the 20% level (IC20), the “hERG IC20/TLR7 IC50” value turned out to be 837.6 and the “hERG IC20/TLR8 IC50” value was found to be 516.0. The “hERG IC20/TLR9 IC50” value in data set [3] was found to be 62.8. In addition, in data set [2], the IC50 stood at 4.5 nM.
For the compound `Cc1cc(-c2cc(C)c3nccn3c2)cnc1N1CCC(N2CCN(C)CC2)CC1` [Example 9, 8-methyl-6-[5-methyl-6-[4-(4-methylpiperazin-1-yl)-1-piperidyl]-3-pyridyl]imidazo[1,2-a]pyridine], the figures for the IC50 in data set [1] and in data set [2] were 500 nM and 8 nM, respectively.
